Laboratory results from patent US8802678B2, “Carbonylated (aza) cyclohexanes as dopamine D3 receptor ligands” (Bioprojet, priority 2006, dated 2014).

N#CCCC(=O)N[C@H]1CC[C@H](CCN2CCN(c3ccc(C(F)(F)F)cc3)CC2)CC1 [Example 643, 3-Cyano-N-(4-{2-[4-(4-trifluoromethylphenyl)piperazin-1-yl]ethyl}cyclohexyl) propanamide]
melting point: 207 °C

N#CCC(=O)N[C@H]1CC[C@H](CCN2CCN(c3csc4cc(C(F)(F)F)ccc34)CC2)CC1 [Example 173, 2-Cyano-N-(4-{2-[4-(6-trifluoromethylbenzo[b]thiophen-3-yl)piperazin-1-yl]ethyl}cyclohexyl)acetamide]
melting point: 216 °C

N#CCC(=O)N[C@H]1CC[C@H](CCN2CC=C(c3cccc(C#N)c3)CC2)CC1
melting point: 185 °C

NC(=O)CCC(=O)N[C@H]1CC[C@H](CCN2CCN(c3cccc(C(F)(F)F)c3F)CC2)CC1 [Example 459, N-(4-{2-[4-(2-Fluoro-3-trifluoro-methylphenyl)piperazin-1-yl]ethyl}cyclohexyl)succinamide]
melting point: 244 °C

COc1ccc(C(F)(F)F)cc1N1CCN(CC[C@H]2CC[C@H](NC(=O)CC#N)CC2)CC1 [Example 165, 2-Cyano-N-(4-{2-[4-(2-methoxy-5-trifluoromethylphenyl)piperazin-1-yl]ethyl}cyclohexyl)acetamide]
melting point: 183 °C

COCC(=O)N[C@H]1CC[C@H](CCN2CCN(c3ccccc3OC)CC2)CC1 [Example 125, 2-Methoxy-N-(4-{2-[4-(2-methoxyphenyl)piperazin-1-yl]ethyl}cyclohexyl)acetamide]
melting point: 125 to 126 °C

N#CCCCC(=O)N[C@H]1CC[C@H](CCN2CCN(c3ccc(F)c(C#N)c3)CC2)CC1 [Example 662, 4-Cyano-N-(4-{2-[4-(3-cyano-4-fluorophenyl)piperazin-1-yl]ethyl}cyclohexyl)butanamide]
melting point: 158 °C

N#CCC(=O)N[C@H]1CC[C@H](CCN2CCN(c3ccc4c(c3)OCO4)CC2)CC1 [Example 315, N-{4-[2-(4-Benzo[1,3]dioxol-5-ylpiperazin-1-yl)ethyl]cyclohexyl}-2-cyanoacetamide]
melting point: 226 °C

CC(=O)CN1CCC(CCN2CCN(c3ccc4c(c3)OCCO4)CC2)CC1 [Example 711, 1-(4-{2-[4-(2,3-Dihydrobenzo[1,4]dioxin-6-yl)piperazin-1-yl]ethyl}piperidin-1-yl)propan-2-one]
melting point: 126 °C

CC(=O)CN1CCC(CCN2CC=C(c3ccccc3C)CC2)CC1.Cl.Cl
melting point: 292 °C

N#CCCCC(=O)N[C@H]1CC[C@H](CCN2CCN(c3cccc(Cl)c3C#N)CC2)CC1 [Example 393, N-(4-{2-[4-(3-Chloro-2-cyanophenyl)piperazin-1-yl]ethyl}cyclohexyl)-4-cyanobutanamide]
melting point: 189 °C

N#CCC(=O)N[C@H]1CC[C@H](CCN2CCN(c3cccc(-c4ncco4)c3)CC2)CC1 [Example 530, 2-Cyano-N-(4-{2-[4-(3-oxazol-2-ylphenyl)piperazin-1-yl]ethyl}cyclohexyl)acetamide]
melting point: 185 °C

N#CCC(=O)N[C@H]1CC[C@H](CCN2CC=C(c3ccc(F)cc3)CC2)CC1
melting point: 202 °C

CCOCC(=O)N[C@H]1CC[C@H](CCN2CCN(c3cc(C)cc(Cl)c3)CC2)CC1 [Example 577, N-(4-{2-[4-(3-Chloro-5-methylphenyl)piperazin-1-yl]ethyl}cyclohexyl)-2-ethoxyacetamide]
melting point: 100 °C

NC(=O)CC(=O)N[C@H]1CC[C@H](CCN2CCN(c3cc(C(F)(F)F)ccc3F)CC2)CC1 [Example 671, N-(4-{2-[4-(2-Fluoro-5-trifluoromethylphenyl)piperazin-1-yl]ethyl}cyclohexyl)-malonamide]
melting point: 185 °C

N#CCC(=O)N[C@H]1CC[C@H](CCN2CCN(c3ccc(F)c(F)c3)CC2)CC1 [Example 325, 2-Cyano-N-(4-{2-[4-(3,4-difluorophenyl)piperazin-1-yl]ethyl}cyclohexyl)acetamide]
melting point: 197 °C

COCCCC(=O)N[C@H]1CC[C@H](CCN2CCN(c3cc(C(F)(F)F)ccc3F)CC2)CC1 [Example 616, N-(4-{2-[4-(2-Fluoro-5-trifluoromethylphenyl)piperazin-1-yl]ethyl}cyclohexyl)-4-methoxybutanamide]
melting point: 177 °C

COCCCC(=O)N[C@H]1CC[C@H](CCN2CCN(c3cc(F)cc(C(F)(F)F)c3)CC2)CC1 [Example 757, N-(4-{2-[4-(3-Fluoro-5-trifluoromethylphenyl)piperazin-1-yl]ethyl}cyclohexyl)-4-methoxybutanamide]
melting point: 177 °C

N#CCCCC(=O)N[C@H]1CC[C@H](CCN2CCN(c3cccc4c3CCC4)CC2)CC1 [Example 457, 4-Cyano-N-{4-[2-(4-indan-4-ylpiperazin-1-yl)ethyl]cyclohexyl}butanamide]
melting point: 157 °C

O=C(N[C@H]1CC[C@H](CCN2CCN(c3cc(F)c(F)cc3F)CC2)CC1)C1=CCCC1 [Example 523, Cyclopent-1-enecarboxylic acid (4-{2-[4-(2,4,5-trifluorophenyl)piperazin-1-yl]ethyl}cyclohexyl) amide]
melting point: 199 °C

N#CCCCC(=O)N[C@H]1CC[C@H](CCN2CCN(c3ccccc3Cl)CC2)CC1 [Example 233, N-(4-{2-[4-(2-Chlorophenyl)piperazin-1-yl]ethyl}cyclohexyl)-4-cyanobutanamide]
melting point: 142 °C

CC(=O)CN1CCC(CCN2CCN(c3ccc4c(c3)CCCCC4)CC2)CC1 [Example 642, 1-(4-{2-[4-(6,7,8,9-Tetrahydro-5H-benzocyclohepten-2-yl)piperazin-1-yl]ethyl}piperidin-1-yl)propan-2-one]
melting point: 98 °C

COCC(=O)N[C@H]1CC[C@H](CCN2CCN(c3cc(C(F)(F)F)ccc3F)CC2)CC1 [Example 701, N-(4-{2-[4-(2-Fluoro-5-trifluoromethylphenyl)piperazin-1-yl]ethyl}cyclohexyl)-2-methoxyacetamide]
melting point: 139 °C

N#CCC(=O)N[C@H]1CC[C@H](CCN2CCN(c3ccc(Cl)c(C(F)(F)F)c3)CC2)CC1 [Example 360, N-(4-{2-[4-(4-Chloro-3-trifluoromethylphenyl)piperazin-1-yl]ethyl}cyclohexyl)-2-cyanoacetamide]
melting point: 187 °C

N#CCCCC(=O)N[C@H]1CC[C@H](CCN2CCN(c3cc(C#N)ccc3Cl)CC2)CC1 [Example 601, N-(4-{2-[4-(2-Chloro-5-cyanophenyl)piperazin-1-yl]ethyl}cyclohexyl)-4-cyanobutanamide]
melting point: 206 °C

N#CCCCC(=O)N[C@H]1CC[C@H](CCN2CCN(c3cccc(OC(F)(F)F)c3)CC2)CC1 [Example 206, 4-Cyano-N-(4-{2-[4-(3-trifluoromethoxyphenyl)piperazin-1-yl]ethyl}cyclohexyl)butanamide]
melting point: 133 to 134 °C

O=C(N[C@H]1CC[C@H](CCN2CCN(c3cc(C(F)(F)F)ccc3F)CC2)CC1)C1=CCCC1 [Example 705]
melting point: 199 °C

COCCCC(=O)N[C@H]1CC[C@H](CCN2CCN(c3ccc(F)c(F)c3F)CC2)CC1 [Example 652, 4-Methoxy-N-(4-{2-[4-(2,3,4-trifluorophenyl)piperazin-1-yl]ethyl}cyclohexyl)butanamide]
melting point: 203 °C

CC(C)(C)c1cc(N2CCN(CC[C@H]3CC[C@H](NC(=O)CC#N)CC3)CC2)cc(C(C)(C)C)c1 [Example 232, 2-Cyano-N-(4-{2-[4-(3,5-di-tert-butylphenyl)piperazin-1-yl]ethyl}cyclohexyl)acetamide]
melting point: 168 °C

N#CCCCC(=O)N[C@H]1CC[C@H](CCN2CCN(c3ccc(Cl)c(Cl)c3F)CC2)CC1 [Example 520, 4-Cyano-N-(4-{2-[4-(3,4-dichloro-2-fluorophenyl)piperazin-1-yl]ethyl}cyclohexyl)butanamide]
melting point: 199 °C

O=C(N[C@H]1CC[C@H](CCN2CCN(c3cc(F)c(F)c(F)c3)CC2)CC1)C1CC=CC1 [Example 466, Cyclopent-3-enecarboxylic acid (4-{2-[4-(3,4,5-trifluorophenyl)piperazin-1-yl]ethyl}cyclohexyl) amide]
melting point: 224 °C

CCc1cccc(N2CCN(CC[C@H]3CC[C@H](NC(=O)CC#N)CC3)CC2)c1 [Example 149, 2-Cyano-N-(4-{2-[4-(3-ethylphenyl)piperazin-1-yl]ethyl}cyclohexyl)acetamide]
melting point: 142 °C

O=C(N[C@H]1CC[C@H](CCN2CCN(c3ccc(Cl)c(Cl)c3)CC2)CC1)C1=CCCC1 [Example 486, Cyclopent-1-enecarboxylic acid (4-{2-[4-(3,4-dichlorophenyl)piperazin-1-yl]ethyl}cyclohexyl) amide]
melting point: 202 °C

N#CCC(=O)N[C@H]1CC[C@H](CCN2CCN(c3cccc(Br)c3)CC2)CC1 [Example 280, N-(4-{2-[4-(3-Bromophenyl)piperazin-1-yl]ethyl}cyclohexyl)-2-cyanoacetamide]
melting point: 168 °C

N#CCCCC(=O)N[C@H]1CC[C@H](CCN2CCN(c3ccc(F)c(C#N)c3F)CC2)CC1 [Example 688, 4-Cyano-N-(4-{2-[4-(3-cyano-2,4-difluorophenyl)piperazin-1-yl]ethyl}cyclohexyl)butanamide]
melting point: 203 °C

CC(=O)CN1CCC(CCN2CCN(c3ccc(F)c(C#N)c3)CC2)CC1 [Example 659, 2-Fluoro-5-(4-{2-[1-(2-oxopropyl)piperidin-4-yl]ethyl}piperazin-1-yl)benzonitrile]
melting point: 102 °C

CCOCC(=O)N[C@H]1CC[C@H](CCN2CCN(c3cccc(C(F)(F)F)c3C#N)CC2)CC1 [Example 102, N-(4-{2-[4-(2-Cyano-3-trifluoromethylphenyl)piperazin-1-yl]ethyl}cyclohexyl)-2-ethoxyacetamide]
melting point: 173 °C

CS(=O)(=O)Nc1cccc(N2CCN(CC[C@H]3CC[C@H](NC(=O)CC#N)CC3)CC2)c1 [Example 240, 2-Cyano-N-(4-{2-[4-(3-methanesulfonylaminophenyl)piperazin-1-yl]ethyl}cyclohexyl)-acetamide]
melting point: 194 °C

O=C(N[C@H]1CC[C@H](CCN2CC=C(c3ccccc3F)CC2)CC1)C1=CCCC1
melting point: 192 °C

N#CCCCC(=O)N[C@H]1CC[C@H](CCN2CC=C(c3ccc(F)cc3)CC2)CC1
melting point: 180 °C

N#CCCC(=O)N[C@H]1CC[C@H](CCN2CCN(c3cccc(C#N)c3)CC2)CC1 [Example 644, 3-Cyano-N-(4-{2-[4-(3-cyanophenyl)piperazin-1-yl]ethyl}cyclohexyl)propanamide]
melting point: 160 °C
